Laboratory results reported in PubChem BioAssay (NCI).
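Growth conditions: 96-well plates. Treatment: test compound, 48 hours, 5 concentrations. Analysis: linear interpolation between bracketing concentrations; unreached endpoints set to highest concentration. The concentration for 50% growth inhibition is given as GI50. TGI is the concentration that stops growth completely.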

Legend:
Test in all cases: DTP human tumour cell line panel, 48 h
[1] = test system: 786-0 renal
[2] = test system: A498 renal
[3] = test system: A549 NSCLC
[4] = test system: ACHN renal
[5] = test system: BT-549 breast
[6] = test system: CAKI-1 renal
[7] = test system: CCRF-CEM leukemia
[8] = test system: COLO 205 colon
[9] = test system: DU-145 prostate
[10] = test system: HCC-2998 colon
[11] = test system: HCT-116 colon
[12] = test system: HCT-15 colon
[13] = test system: HL-60(TB) leukemia
[14] = test system: HOP-62 NSCLC
[15] = test system: HOP-92 NSCLC
[16] = test system: HS 578T breast
[17] = test system: HT29 colon
[18] = test system: IGROV1 ovarian
[19] = test system: K-562 leukemia
[20] = test system: KM12 colon
[21] = test system: LOX IMVI melanoma
[22] = test system: M14 melanoma
[23] = test system: MALME-3M melanoma
[24] = test system: MCF7 breast
[25] = test system: MDA-MB-231 breast
[26] = test system: MDA-MB-435
[27] = test system: MOLT-4 leukemia
[28] = test system: NCI-H226 lung
[29] = test system: NCI-H23 lung
[30] = test system: NCI-H460 lung
[31] = test system: NCI-H522 lung
[32] = test system: NCI/ADR-RES ovarian
[33] = test system: OVCAR-3 ovarian
[34] = test system: OVCAR-4 ovarian
[35] = test system: OVCAR-5 ovarian
[36] = test system: OVCAR-8 ovarian
[37] = test system: PC-3 prostate
[38] = test system: RPMI-8226 leukemia
[39] = test system: RXF 393 renal
[40] = test system: SF-268 CNS
[41] = test system: SF-295 CNS
[42] = test system: SF-539 CNS
[43] = test system: SK-MEL-2 melanoma
[44] = test system: SK-MEL-28 melanoma
[45] = test system: SK-MEL-5 melanoma
[46] = test system: SK-OV-3 ovarian
[47] = test system: SN12C renal
[48] = test system: SNB-19 CNS
[49] = test system: SNB-75 CNS
[50] = test system: SR leukemia
[51] = test system: SW-620 colon
[52] = test system: T-47D breast
[53] = test system: TK-10 renal
[54] = test system: U251 CNS
[55] = test system: UACC-257 melanoma
[56] = test system: UACC-62 melanoma
[57] = test system: UO-31 renal

Cn1cc(C2=C(c3cn(CCCN)c4ccccc34)C(=O)NC2=O)c2ccccc21 was tested, and the GI50 [1] was 4.75 µM, the TGI [1] was 14.2 µM and the GI50 [2] was 3.92 µM. It also gave a TGI [2] of 9.18 µM, a GI50 [3] of 5.65 µM and a TGI [3] of 17.4 µM. For the same compound, the GI50 [4] was 5.53 µM, the TGI [4] was 19.7 µM and the GI50 [5] was 5.07 µM. For the same compound, the TGI [5] was 11.5 µM, the GI50 [6] was 4.94 µM and the TGI [6] was over 15.9 µM. For the same compound, the GI50 [7] was 2.59 µM, the TGI [7] was 12.1 µM and the GI50 [8] was 3.27 µM. It also gave a TGI [8] of 7.06 µM, a GI50 [9] of 6.71 µM and a TGI [9] of 18.7 µM. For the same compound, the GI50 [10] was 5.84 µM, the TGI [10] was 16.2 µM and the GI50 [11] was 3.48 µM. For the same compound, the TGI [11] was 10.1 µM, the GI50 [12] was 5.14 µM and the TGI [12] was over 25 µM. It also gave a GI50 [13] of 5.04 µM, a TGI [13] of 11.6 µM and a GI50 [14] of 6.09 µM. It also gave a TGI [14] of 17 µM, a GI50 [15] of 8.26 µM and a TGI [15] of 17.6 µM. The GI50 [16] was 3.91 µM, the TGI [16] was 16.8 µM and the GI50 [17] was 4.74 µM. It also gave a TGI [17] of 18.4 µM, a GI50 [18] of 8.95 µM and a TGI [18] of over 19.7 µM. For the same compound, the GI50 [19] was 4.29 µM, the TGI [19] was 14.6 µM and the GI50 [20] was 5.44 µM. For the same compound, the TGI [20] was 14.2 µM, the GI50 [21] was 3.4 µM and the TGI [21] was 7.49 µM. It also gave a GI50 [22] of 4.38 µM, a TGI [22] of 8.6 µM and a GI50 [23] of 5.66 µM. It also gave a TGI [23] of 10.6 µM, a GI50 [24] of 3.55 µM and a TGI [24] of 10.4 µM. It also gave a GI50 [25] of 6.49 µM, a TGI [25] of 16.7 µM and a GI50 [26] of 2.66 µM. It also gave a TGI [26] of 6.62 µM, a GI50 [27] of 6.06 µM and a TGI [27] of 18.5 µM. The GI50 [28] was 5.87 µM, the TGI [28] was over 18 µM and the GI50 [29] was 5.17 µM. For the same compound, the TGI [29] was 14.2 µM, the GI50 [30] was 5.25 µM and the TGI [30] was 11.1 µM. The GI50 [31] was 4.12 µM, the TGI [31] was 9.13 µM and the GI50 [32] was 10.8 µM. For the same compound, the TGI [32] was over 25 µM, the GI50 [33] was 5.86 µM and the TGI [33] was 16.2 µM. For the same compound, the GI50 [34] was 4.22 µM, the TGI [34] was 12.9 µM and the GI50 [35] was 9.52 µM. It also gave a TGI [35] of over 25 µM, a GI50 [36] of 5.46 µM and a TGI [36] of 14.7 µM. For the same compound, the GI50 [37] was 7.63 µM, the TGI [37] was 24.6 µM and the GI50 [38] was 5.91 µM. For the same compound, the TGI [38] was 12.5 µM, the GI50 [39] was 3.4 µM and the TGI [39] was 7.42 µM. For the same compound, the GI50 [40] was 5.33 µM, the TGI [40] was 12.8 µM and the GI50 [41] was 7.38 µM. For the same compound, the TGI [41] was over 25 µM, the GI50 [42] was 3.44 µM and the TGI [42] was 6.86 µM. For the same compound, the GI50 [43] was 3.04 µM, the TGI [43] was 7.07 µM and the GI50 [44] was 4.7 µM. It also gave a TGI [44] of 9.3 µM, a GI50 [45] of 3.77 µM and a TGI [45] of 7.26 µM. For the same compound, the GI50 [46] was 5.58 µM, the TGI [46] was over 25 µM and the GI50 [47] was 4.67 µM. It also gave a TGI [47] of 18.6 µM, a GI50 [48] of 7.89 µM and a TGI [48] of 24.9 µM. The GI50 [49] was 0.998 µM, the TGI [49] was 5.35 µM and the GI50 [50] was 2.53 µM. It also gave a TGI [50] of 13.8 µM, a GI50 [51] of 4.38 µM and a TGI [51] of 9.37 µM. For the same compound, the GI50 [52] was 6.4 µM, the TGI [52] was 17.5 µM and the GI50 [53] was 4.86 µM. It also gave a TGI [53] of 12.8 µM, a GI50 [54] of 5.01 µM and a TGI [54] of 11.5 µM. For the same compound, the GI50 [55] was 4.9 µM, the TGI [55] was 9.05 µM and the GI50 [56] was 4.35 µM. The TGI [56] was 8.05 µM, the GI50 [57] was 5.41 µM and the TGI [57] was over 18.8 µM.
